# Data taken from patent publication US20090317395A1, “Antimicrobial Peptide Derived from Galanin Message Associated Peptide (GMAP)” (priority 2006, published 2009).
# Several values for one entry are separate records, joined by “and”; a condition that tells them apart may be missing. Identical values can stand only once. Entries after “also recorded” stand apart in the source; their conditions may differ.
# Key:
# Candida albicans [1] = test: Microscopic examination of treated Candida albicans cultures for hyphae (yeast-to-hypha switch); type: cell-based
# Description: Cultures of Candida albicans were treated for 24 and 48 hrs either with the common antifungal substance fluconazol, GMAP 16-42 or Galanin.
# Candida albicans [2] = test: Antifungal (growth inhibition) activity against C. albicans; type: cell-based; settings: for inhibitory growth effect / antimicrobial activity against C. albicans: FIG. 3 (C), ** p<0.05
# From the text: The inventors analyzed the antimicrobial activity of peptide fragments corresponding to ppGAL against gram-negative E. coli gram-positive Staphylococcus aureus and Corynebacterium sp. and the yeast Candida albicans and Aspergillus fumigatus. Positive controls were the antimicrobial peptides Indolicidin, NPY 13-36 and Magainin I, as a negative control served the Adrenocorticotropic hormone (ACTH) 18-39 (Cutuli M, Cristiani S, Lipton J M and Catania A: Antimicrobial effects of alpha-MSH peptides. J Leukoc Biol 67:233-239, 2000; Selsted M E, Novotny M J, Morris W L, Tang Y Q, Smith W and Cullor J S: Indolicidin, a novel bactericidal tridecapeptide amide from neutrophils. J Biol Chem. 267:4292-4295., 1992; Shimizu M, Shigeri Y, Tatsu Y, Yoshikawa S and Yumoto N: Enhancement of antimicrobial activity of neuropeptide Y by N-terminal truncation. Antimicrob Agents Chemother 42:2745-2746, 1998; Zasloff M: Magainins, a class of antimicrobial peptides from Xenopus skin: isolation, characterization of two active forms, and partial cDNA sequence of a precursor. Proc Natl Acad Sci USA 84:5449-5453, 1987).
# None of the peptide fragments tested of the ppGal gene did reveal antibacterial activity. […] The antifungal activity can be found already at a concentration of […] (4 μM).
# [3] = interpretation of microscopy findings
compound,measurement,setting,value
"OC(Cn1cncn1)(Cn1cncn1)c1ccc(F)cc1F [fluconazol, reference compound]",microscopic examination of cultures: hyphae / yeast forms,Candida albicans [1]; treated for 24 and 48 hrs,hyphae were only visible in the untreated and galanin treated wells
same,microscopic examination of cultures: hyphae / yeast forms,Candida albicans [1]; treated for 48 hrs (FIG. 4),hyphae were only visible in the untreated and galanin treated wells
ELRPEDDMKPGSFDRSIPENNIMRTIIEFLSFLHLKEAGAL (listed as Homo sapiens) [GMAP 1-41],inhibitory growth effect / antimicrobial activity against C. albicans,Candida albicans [2],active compound
GMAP: galanin message associated peptide; in b114 refers to the GMAP fragment treated wells (ELRPEDDMKPGSFDRSIPENNIMRTIIEFLSFLHLKEAGAL; listed as Homo sapiens),effect on proliferation of Candida per se,Candida albicans [1]; [3],not to significantly affect the proliferation of Candida per se
same,effect on switch to pathogenic hyphal forms,Candida albicans [1]; [3],inhibits the switch to pathogenic hyphal forms; also recorded: inhibits the pathogenic phenotypic switch of C. albicans
SIPENNIMRTIIEFLSFLHLKEAGAL (listed as Homo sapiens) [GMAP 16-41],concentration at which antifungal activity can be found,Candida albicans [2]; C. albicans,12 pg/ml and 4 μM
same,inhibitory growth effect / antimicrobial activity against C. albicans,Candida albicans [2],antimicrobial core sequence
